Test results as given in patent US20240382589A1, “Synergistic Inhibition of eIF5A and Notch Signaling in Intermediate Tregs” (The University of Toledo, priority 2022, published 2024).

Key:
[1] = tested on: TID mice and NOD mice; settings: cited from earlier work
[2] = tested on: anti-GAD65, anti-IA2 and anti-insulin autoantibodies; assay: Anti-GAD65, anti-IA2 and anti-insulin autoantibody ELISA in mouse serum; type: in vivo; settings: TID mice; treatment with GC7 or anti-DLL4
Method: Anti-GAD65, anti-IA2, and anti-insulin autoantibodies were measured in mice serum using
an Anti-GAD65 ELISA kit (Kronus, Star, ID) according to the manufacturer's instructions. Mice anti-insulin antibodies were measured using a mouse insulin autoantibody (IAA) ELISA kit (Abbexa, catalog #abx053161. Abbexa LLC, Houston, TX, United States; with a positive predictive value range between 0.16 and 10 ng/ml). Anti-IA2 autoantibodies were also measured using a human IA2 autoantibody (IA2Ab) ELISA kit (Kronus, Star, ID) following the manufacturers' manual.

[3] = biological target: T1, deoxyhypusine synthase (DHS) (Homo sapiens, UniProt P49366); settings: cited from earlier work
T1 sequence (P49366 1-369): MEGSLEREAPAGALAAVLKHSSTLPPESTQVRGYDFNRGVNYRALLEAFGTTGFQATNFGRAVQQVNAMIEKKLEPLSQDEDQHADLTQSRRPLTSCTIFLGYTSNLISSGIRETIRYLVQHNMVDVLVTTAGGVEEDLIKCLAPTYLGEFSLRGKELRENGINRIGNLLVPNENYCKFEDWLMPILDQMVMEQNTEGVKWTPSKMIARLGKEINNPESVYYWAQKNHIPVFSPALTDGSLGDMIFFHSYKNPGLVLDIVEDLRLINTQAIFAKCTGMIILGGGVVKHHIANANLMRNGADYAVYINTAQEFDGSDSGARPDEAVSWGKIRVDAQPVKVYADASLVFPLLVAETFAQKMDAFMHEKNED

[4] = tested on: CD4, CD8 and CD25 T cells isolated from PLN of TID mice; assay: In vitro co-stimulation / CFSE proliferation of T cells from PLN of TID mice; type: cell-based, mouse
Method: Purified CD4, CD8, and CD25 cells were isolated from TID mice using the mice CD4 T Cell Isolation Kit (#130-104-454), CD8a+ T Cell Isolation Kit II (#130-095-236), and CD4+ CD25+ Regulatory T Cell Isolation Kit (Cat no: 130-091-041) following standard protocol. Briefly, after sacrificing the TID mice, pancreatic lymph nodes (PLN) were isolated and single cell suspensions were prepared. Non-CD4 T cells and non-CD8 T cells were isolated using magnetically labeled microbeads. Non-CD4 T cells were retained in the MACS column and non-touch enriched CD4 and CD8 cells were eluted from the column. Simultaneously CD25 positive cells were separated from the CD4 clute with anti-CD25PE microbeads with more than 90% purity. Single cell suspensions of CD4, CD8, and CD25^− T cells were stained with carboxyfluorescein succinimidyl ester (CFSE) to track the induced proliferation. Single cell suspensions of purified CD4, CD8, and CD25 T cells (CFSE-labeled) were co-stimulated with recombinant human GAD65 (rhGAD65) protein ([…]), GC7 (100 mM), anti-DLL4 ([…]), rhGAD65+GC7, rhGAD65+GC7+anti-DLL4, or CD3+CD28 stimulated for 4 days (n=7). CD4 T cells (CFSE-labeled) were further stained with fluorochrome-conjugated antibodies against mouse IL-17(clone 559502, PE), IFNg (clone 554413, APC), and forkhead box P3 (Foxp3) (clone MF23, Alexa Fluor@488, Alexa Fluor@647). In vitro proliferation assays were analyzed by FLOWJO V10 Beta software using fix ratio, fix CV, and fix background from unstimulated cells.

## N=C(N)NCCCCCCCN [GC7, N1-guanyl-1,7-diaminoheptane]
[1]
  adverse effect in previous in vivo studies: did not reveal any significant adverse effect
[2]
  GAD65 antibody titer: significantly reduced
[3]
  IC50: 0.017 µM
[4]; GC7 (100 mM), 4 days
  Treg population (expression of CD25 and FOXP3 on CD3+ CD4 T cells): significantly enriched
[4]; GC7 (100 mM), CFSE
  replicative index of Treg cells (Treg peak): significant Treg peak
[4]; compared to conventional stimulation with anti-(CD3+CD28)/rhGAD65
  proliferation index of CD8 T cells: not significant

## C/C(=N\NC(=N)N)c1cc(NC(=O)CCCCCCCCC(=O)Nc2cc(/C(C)=N/NC(=N)N)cc(/C(C)=N/NC(=N)N)c2)cc(/C(C)=N/NC(=N)N)c1 [Semapimod]
[3]
  IC50: ~2000 µM
